# Results as given in patent US6472348B1, “Pyridone derivatives and herbicides” (Kumiai Chemical Industry Co., Ltd., priority 1996, dated 2002).
# Columns and labels:
# Format in all cases: in vivo
# barnyardgrass (Ec) [1] = test: Test Example 2: herbicidal effects by upland field soil treatment; conditions: 100 g of the active ingredient per 10 ares;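 also: grade of growth control; 5 = at least 90%; 4 = 70 to 90%; 3 = 50 to 70%; 2 = 30 to 50%; 1 = 10 to 30%; 0 = under 10%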
# Description: (§1) (Test on Herbicidal Effects by Upland Field Soil Treatment)
# slender amaranth (Am) [2] = test: as above; conditions: 100 g of the active ingredient per 10 ares
# Description: as §1
# rice flatsedge (Ci) [3] = test: as above; conditions: 100 g of the active ingredient per 10 ares
# Description: as §1
# [4] = system: common lambsquarters (Ch); test: as above; conditions: 100 g of the active ingredient per 10 ares
# Description: as §1
# Digitaria ciliaris (Di) = test: as above; conditions: 100 g of the active ingredient per 10 ares;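 also: grade of growth control; 5 = at least 90%; 4 = 70 to 90%; 3 = 50 to 70%; 2 = 30 to 50%; 1 = 10 to 30%; 0 = under 10%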
# Description: as §1
# pale smartweed (Po) [5] = test: as above; conditions: 100 g of the active ingredient per 10 ares
# Description: as §1
# barnyardgrass (Ec) [6] = test: Test Example 1: herbicidal effects by paddy field soil treatment; conditions: 100 g of the active ingredient per 10 ares, 21st day after the application, index 0-5 of Table 47;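 also: grade of growth control; 5 = at least 90%; 4 = 70 to 90%; 3 = 50 to 70%; 2 = 30 to 50%; 1 = 10 to 30%; 0 = under 10%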
# Protocol: (§2) (Test on Herbicidal Effects by Paddy Field Soil Treatment)
# (§3) In a plastic pot (surface area: 100 cm^2) filled with paddy field soil, barnyardgrass (Ec), monochoria (Mo) and bulrush (Sc) were sown after puddling and leveling, and flooded to a water depth of 3 cm. […] The dose was 100 g of the active ingredient per 10 ares. The plants were then cultured in a green house, and the evaluation of the herbicidal effects was conducted on the 21st day after the application in accordance with the standards as identified in Table 47.
# bulrush (Sc) = test: as above; conditions: 100 g of the active ingredient per 10 ares, 21st day after the application, index 0-5 of Table 47;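 also: grade of growth control; 5 = at least 90%; 4 = 70 to 90%; 3 = 50 to 70%; 2 = 30 to 50%; 1 = 10 to 30%; 0 = under 10%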
# Protocol: as §2, §3
# monochoria (Mo) = test: as above; conditions: 100 g of the active ingredient per 10 ares, 21st day after the application, index 0-5 of Table 47
# Protocol: as §2, §3
# barnyardgrass (Ec) [7] = test: Test Example 3: herbicidal effects by upland field foliage treatment; set-up: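 grade of growth control; 5 = at least 90%; 4 = 70 to 90%; 3 = 50 to 70%; 2 = 30 to 50%; 1 = 10 to 30%; 0 = under 10%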
# Protocol: (§4) (Test on Herbicidal Effects by Upland Field Foliage Treatment)
# (§5) In a plastic pot (surface area: 120 cm^2) filled with sand, barnyardgrass (Ec), Diaitaria ciliaris (Di), pale smartweed (Po), slender amaranth (Am), common lambsquarters (Ch) and rice flatsedge (Ci) were sown and covered with soil and were cultured in a green house for 2 weeks. […] The plants were then cultured in the green house, and the evaluation of the herbicidal effects was conducted on the 14th day after the treatment in accordance with the standards as identified in Table 47. Symbol—represents “not tested”.
# slender amaranth (Am) [8] = test: as above; set-up: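 grade of growth control; 5 = at least 90%; 4 = 70 to 90%; 3 = 50 to 70%; 2 = 30 to 50%; 1 = 10 to 30%; 0 = under 10%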
# Protocol: as §4, §5
# Diaitaria ciliaris (Di) = test: as above; set-up: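 grade of growth control; 5 = at least 90%; 4 = 70 to 90%; 3 = 50 to 70%; 2 = 30 to 50%; 1 = 10 to 30%; 0 = under 10%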
# Protocol: as §4, §5
# rice flatsedge (Ci) [9] = test: as above; set-up: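 grade of growth control; 5 = at least 90%; 4 = 70 to 90%; 3 = 50 to 70%; 2 = 30 to 50%; 1 = 10 to 30%; 0 = under 10%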
# Protocol: as §4, §5
# [10] = system: common lambsquarters (Ch); test: as above; set-up: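 grade of growth control; 5 = at least 90%; 4 = 70 to 90%; 3 = 50 to 70%; 2 = 30 to 50%; 1 = 10 to 30%; 0 = under 10%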
# Protocol: as §4, §5
# pale smartweed (Po) [11] = test: as above; set-up: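 grade of growth control; 5 = at least 90%; 4 = 70 to 90%; 3 = 50 to 70%; 2 = 30 to 50%; 1 = 10 to 30%; 0 = under 10%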
# Protocol: as §4, §5
# [12] = 21st day after the application, index 0-5 of Table 47
# [13] = 100 g of the active ingredient per 10 ares, evaluated on the 14th day after treatment
# [14] = evaluated on the 21st day after application
# [15] = 100 g active ingredient per 10 ares, evaluated 14th day after treatment
Compound,Herbicidal effects Ec (barnyardgrass (Ec) [1]; [12]),Herbicidal effects Am (slender amaranth (Am) [2]; [12]),Herbicidal effects Ci (rice flatsedge (Ci) [3]; [12]),"Herbicidal effects Ch [4, 12]",Herbicidal effects Di (Digitaria ciliaris (Di); [12]),Herbicidal effects Po (pale smartweed (Po) [5]; [12]),Herbicidal effects Ec (barnyardgrass (Ec) [6]),Herbicidal effects Sc (bulrush (Sc)),Herbicidal effects Mo (monochoria (Mo)),Herbicidal effects Ec (barnyardgrass (Ec) [7]; [13]),Herbicidal effects Am (slender amaranth (Am) [8]; [13]),Herbicidal effects Di (Diaitaria ciliaris (Di); [13]),Herbicidal effects Ci (rice flatsedge (Ci) [9]; [13]),"Herbicidal effects Ch [10, 13]",Herbicidal effects Po (pale smartweed (Po) [11]; [13]),Herbicidal effects Ec (barnyardgrass (Ec) [1]; [14]),Herbicidal effects Am (slender amaranth (Am) [2]; [14]),Herbicidal effects Ci (rice flatsedge (Ci) [3]; [14]),"Herbicidal effects Ch [4, 14]",Herbicidal effects Di (Digitaria ciliaris (Di); [14]),other results
CCCC(Oc1cc(-c2ccc(C(F)(F)F)n(C)c2=O)c(F)cc1Cl)C(=O)OCC (racemic) [1-121],5,5,5,5,5,5,5,5,5,5,5,5,5,5,5,–,–,–,–,–,–
Cn1c(C(F)(F)F)ccc(-c2cc(Oc3nc(Cl)cs3)c(Cl)cc2F)c1=O [1-103],4,5,5,5,5,5,5,5,5,–,–,–,–,–,–,–,–,–,–,–,–
COc1cc(-c2ccc(C(F)(F)F)n(C)c2=O)ccc1Cl [1-108],5,5,5,5,–,5,5,5,5,5,5,5,5,5,5,–,–,–,–,–,–
C#CCSc1cc(-c2ccc(C(F)(F)F)n(C)c2=O)ccc1Cl [1-112],5,5,5,5,5,5,5,5,5,–,–,–,–,–,–,–,–,–,–,–,–
Cn1c(C(F)(F)F)ccc(-c2cc(Sc3ncccn3)c(Cl)cc2Cl)c1=O [1-131],5,5,5,5,5,5,5,5,5,–,–,–,–,–,–,–,–,–,–,–,–
Cn1c(C(F)(F)F)ccc(-c2cc(C(N)=O)c(Cl)cc2F)c1=O [1-145],–,–,–,–,–,–,5,5,5,5,5,5,5,5,5,–,–,–,–,–,–
Cn1c(C(F)(F)F)ccc(-c2cc(OC3CCCO3)c(Cl)cc2F)c1=O (centres unmarked) [Compound 1-183],–,–,–,–,–,–,5,5,5,4,5,5,5,5,5,–,–,–,–,–,–
Cn1c(C(F)(F)F)ccc(-c2ccc(Cl)c(Cl)c2)c1=O [Compound 1-185],–,–,–,–,–,–,–,–,–,–,–,–,–,–,–,5,5,5,5,5,Herbicidal effects Po (pale smartweed (Po) [5]; [14]): 4
Cn1c(C(F)(F)F)ccc(-c2cc(Cl)c(Cl)cc2Cl)c1=O [Compound 1-186],–,–,–,–,–,–,5,4,5,–,–,–,–,–,–,5,5,5,5,5,Herbicidal effects Po (pale smartweed (Po) [5]; [14]): 5
C=CC(=O)c1cc(-c2ccc(C(F)(F)F)n(C)c2=O)c(F)cc1Cl [Compound 1-198],–,–,–,–,–,–,5,5,5,–,–,–,–,–,–,–,–,–,–,–,"Herbicidal effects Ec (barnyardgrass (Ec) [7]; [15]): 5; Herbicidal effects Am (slender amaranth (Am) [8]; [15]): 5; Herbicidal effects Di (Diaitaria ciliaris (Di); [15]): 5; Herbicidal effects Ci (rice flatsedge (Ci) [9]; [15]): 5; Herbicidal effects Ch [10, 15]: 5; Herbicidal effects Po (pale smartweed (Po) [11]; [15]): 5"
CNC(=O)COc1cc(-c2ccc(C(F)(F)F)n(C)c2=O)c(F)cc1Cl [Compound 1-209],–,–,–,–,–,–,5,5,5,–,–,–,–,–,–,4,5,5,5,4,Herbicidal effects Po (pale smartweed (Po) [5]; [14]): 5
CNS(=O)(=O)c1cc(-c2ccc(C(F)(F)F)n(C)c2=O)ccc1Cl [Compound 1-257],–,–,–,–,–,–,5,5,5,–,–,–,–,–,–,5,5,5,5,5,Herbicidal effects Po (pale smartweed (Po) [5]; [14]): 5
